From patent US11820745B2, “PKC-activating compounds for the treatment of neurodegenerative diseases” (Synaptogenix, Inc., priority 2008, dated 2023)

Assays:
PKCα = molecular target: T1, PKCα (Homo sapiens, UniProt P17252); test: Protein kinase C assay, recombinant PKC alpha; assay type: biochemical; details: data not shown
T1 construct: purchased Calbiochem
Protocol: Protein kinase C assay. Recombinant PKC (1 ng of alpha or epsilon isofonn) was mixed with the BR-101 (UCP-LA) in the presence of 10 micromoiar histones, 5 mM CaCl2, 1.2 μg/μl phosphatidyl-L-serine, 0.18 μg/μl 1,2-dioctanoyl-sn-glycerol (DAG), […], […] (pH 7.4), 0.8 tnIVI EDTA, 4 mM EGTA, 4% glycerol, 8 μg/ml aprotinin, 8 μ/ml leupeptin, and 2 mM benzamidine. 0.5 micro Ci [^y32P]ATP was added. The incubation mixture was incubated for 15 min at 37 degrees in a total volume of 10 microliters. The reaction was stopped by spotting the reaction mixtures on 1×2 cm strips of cellulose phosphate paper (Whatman P81) and immediately washing twice for 1 hr in 0.5% H3PO4. The cellulose phosphate strips were counted in a scintillation counter. In some experiments, phosphatidylserine, diacylglycerol, and/or calcium were removed.

TACE = TACE assay in rat primary neurons; assay type: cell-based; details: primary neurons from rat hippocampus; FIGS. 9b, c
Protocol: TACE Assay. TACE was measured by incubating 5 μl cell homogenate, 3 μl buffer (50 mM Tris-HCl 7.4 plus 25 mM NaCl plus 4% glycerol), and 1 of 100 μM TACE substrate IV (Aβz-LAQAVRSSSR-DPa) (Calbiochem) for 20 min at 37° in 1.5-ml polypropylene centrifuge tubes (Jin et al., Anal Biochem. 2002; 302: 269-75). The reaction was stopped by cooling to 4° C. The samples were diluted to 1 ml and the fluorescence was rapidly measured (ex=320 nm, em=420 nm) in a Spex Fluorolog 2 spectrofluorometer.

Aβ = test: Degradation of exogenously applied Aβ in SH-SY5Y neuroblastoma cells; assay type: cell-based, human; details: 0.01 to 10 μM; 100 nM exogenous monomeric Aβ-42; 24 h; FIG. 8
Protocol: Cell culture. Rat hippocampal H19-71GF-IR cells (ATCC, Manassas, Va.) were plated onto poly-L-lysine coated plates and grown at 35° C. in DMEM/10% FCS for several days until about 50% coverage was obtained. The cells were then induced to differentiate into a neuronal phenotype by replacing the medium with 5 ml N2 medium containing 10 ng/ml basic fibroblast growth factor at 39° C. and grown in T-75 flasks at 37° C. Human SH-SY5Y neuroblastoma cells (ATCC) were cultured in 45% F12K/45% MEM/10% FCS. Mouse N2A neuroblastoma cells were cultured in DMEM/10% FCS without glutamine. Rat hippocampal neurons from 18-day-old embryonic
AB Measurement and Cell Viability Assay. Aβ was measured using an Aβ1-42 human fluorimetric ELISA kit (Invitrogen) according to the manufacturer's instructions. Results were measured in a Biotek Synergy HT microplate reader. AlamarBlue and CyQuant NF (Invitrogen) according to the manufacturer's instructions.
To determine whether the reduced levels of AP caused by PKC activators were due to inhibition of Aβ synthesis or activation of Aβ degradation, we applied BR-111 (DHA-CP6) (0.01 to 10 μM) and low concentrations (100 nM) of exogenous monomeric Aβ-42 to cultured SH-SY5Y cells. This concentration of Aβ is too low to produce measurable toxicity or cell death. […]

SMILES | effect on PKCα (PKCα) | TACE activity (TACE) | reduction of cellular levels of Aβ (Aβ)
CCCCCC1CC1CC1CC1CCCCCCCC(=O)O (stereo not drawn) [BR-101, 8-[2-(2-pentyl-cyclopropylmethyl)-cyclopropyl]-octanoic acid] | not affected | – | –
CCC1CC1CC1CC1CC1CC1CC1CC1CC1CC1CC1CC1CCC(=O)OC (stereo not drawn) [BR-111, methyl-3-(2-((2-((2-((2-((2-((2-ethylcyclopropyl)methyl)cyclopropyl)methyl)cyclopropyl)methyl)-cyclopropyl)methyl)cyclopropyl)methyl)cyclopropyl)propanoate] | – | small increases | 45-63%
